Laboratory results from patent US8946266B2, “Substituted triazole and imidazole derivatives as gamma secretase modulators” (Janssen Pharmaceuticals, Inc., priority 2009, dated 2015).

Key:
Assay type in all cases: cell-based
[1] = system: Aβ42; assay: γ-secretase-modulating activity, Method 1: Aβ42 sandwich ELISA in supernatant of SKNBE2 cells carrying APP 695-wild type (Table 3a); settings: 18 h, averaged IC50 values
Experimental: (§1) Pharmacology A) Screening of the Compounds of the Invention for γ-Secretase-Modulating Activity A1) Method 1
(§2) Screening was carried out using SKNBE2 cells carrying the APP 695-wild type, grown in Dulbecco's Modified Eagle's Medium/Nutrient mixture F-12 (DMEM/NUT-mix F-12) (HAM) provided by Gibco (cat no. 31330-38) containing 5% Serum/Fe supplemented with 1% non-essential amino acids. Cells were grown to near confluency.
(§3) The screening was performed using the assay as described in Citron et al (1997) Nature Medicine 3: 67. Briefly, cells were plated in a 96-well plate at about 10^5 cells/ml one day prior to addition of compounds. Compounds were added to the cells in Ultraculture (Lonza, BE12-725F) supplemented with 1% glutamine (Invitrogen, 25030-024) for 18 h. The media were assayed by two sandwich ELISAs, for Aβ42 and Aβtotal. Toxicity of the compounds was assayed by WST-1 cell proliferation reagent (Roche, 1 644 807) according to the manufacturer's protocol.
To quantify the amount of Aβ42 in the cell supernatant, commercially available Enzyme-Linked-Immunosorbent-Assay (ELISA) kits were used (Innotest® β-Amyloid(1-42), Innogenetics N.V., Ghent, Belgium). The Aβ42 ELISA was performed essentially according to the manufacturer's protocol. Briefly, the standards (dilutions of synthetic Aβ1-42) were prepared in polypropylene Eppendorf with final concentrations of 8000 down to 3.9 pg/ml (1/2 dilution step). Samples, standards and blanks (100 μl) were added to the anti-Aβ42-coated plate supplied with the kit (the capture antibody selectively recognizes the C-terminal end of the antigen). The plate was allowed to incubate 3 h at 25° C. in order to allow formation of the antibody-amyloid complex. Following this incubation and subsequent wash steps a selective anti-Aβ-antibody conjugate (biotinylated 3D6) was added and incubated for a minimum of 1 hour (h) in order to allow formation of the antibody-Amyloid-antibody-complex. After incubation and appropriate wash steps, a Streptavidine-Peroxidase-Conjugate was added, followed 30 minutes later by an addition of 3,3′,5,5′-tetramethylbenzidine (TMB)/peroxide mixture, resulting in the conversion of the substrate into a coloured product. This reaction was stopped by the addition of sulfuric acid (0.9 N) and the colour intensity was measured by means of photometry with an ELISA-reader with a 450 nm filter.
To obtain the values reported in Table 3a, the data were calculated as percentage of the maximum amount of amyloid Beta 42 measured in the absence of the test compound. The sigmoidal dose response curves were analyzed using non-linear regression analysis with percentage of the control plotted against the log concentration of the compound. A 4-parameter equation was used to determine the IC50. The values reported in Table 3a are averaged IC50 values.

[2] = system: Aβtotal; assay: γ-secretase-modulating activity, Method 1: Aβtotal sandwich ELISA in supernatant of SKNBE2 cells carrying APP 695-wild type; settings: Table 3a, 18 h, averaged IC50 values
Experimental: as §1, §2, §3
To quantify the amount of Aβtotal in the cell supernatant, samples and standards were added to a 6E10-coated plate. The plate was allowed to incubate overnight at 4° C. in order to allow formation of the antibody-amyloid complex. Following this incubation and subsequent wash steps a selective anti-Aβ-antibody conjugate (biotinylated 4G8) was added and incubated for a minimum of 1 h in order to allow formation of the antibody-Amyloid-antibody-complex. After incubation and appropriate wash steps, a Streptavidine-Peroxidase-Conjugate was added, followed 30 minutes later by an addition of Quanta Blu fluorogenic peroxidase substrate according to the manufacturer's instructions (Pierce Corp., Rockford, Ill.).

[3] = system: Aβ42; assay: γ-secretase-modulating activity, Method 2: Aβ42 Alphalisa in supernatant of SKNBE2 cells carrying APP 695-wild type (Table 3b); settings: overnight
Procedure, shortened: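 SKNBE2 cells expressing wild-type APP695 were incubated overnight at 37° C. with test compound. Secreted Aβ42 was then measured by AlphaLISA, using a C-terminal Aβ42 antibody paired with an N-terminal Aβ antibody. IC50 came from a 4-parameter fit of percent of compound-free control.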

Compound	IC50 ([1]; Homo sapiens) [nM]	IC50 ([2]; Homo sapiens) [nM]	IC50 ([3]; Homo sapiens) [nM]	IC50 [1] [nM]	IC50 [2] [nM]	IC50 [3] [nM]
COc1cc(-c2nc(C)c(-c3ccccc3)[nH]2)ccc1-n1cnc(C)c1 [Compound 11]	110	> 3000	182	–	–	–
COc1cc(-c2nc(-c3ccccc3)n(C)n2)ccc1-n1cnc(C)c1 [Compound 9]	790	> 30000	603	–	–	–
COc1cc(-c2nc(Nc3ccc(F)cc3C(F)(F)F)n(C)n2)ccc1-n1cnc(C)c1 [Compound 15]	–	–	–	250	11500	50
COc1cc(-c2nc(Nc3cccc(C(F)(F)F)c3)n(C)n2)ccc1-n1cnc(C)c1 [Compound 146]	–	–	–	–	–	15
